Source: BindingDB's records for doi:10.1111/j.1476-5381.1993.tb13617.x (Glaxo Group Research, 1993)
Values joined by “and” are separate entries in the source; they are usually repeats but may differ in a detail not shown here. Identical values can stand only once. Counter-ions that a name gives are not always drawn.

Target: 5-hydroxytryptamine receptor 4 (Cavia porcellus, UniProt O70528)
Sequence (O70528 whole entry): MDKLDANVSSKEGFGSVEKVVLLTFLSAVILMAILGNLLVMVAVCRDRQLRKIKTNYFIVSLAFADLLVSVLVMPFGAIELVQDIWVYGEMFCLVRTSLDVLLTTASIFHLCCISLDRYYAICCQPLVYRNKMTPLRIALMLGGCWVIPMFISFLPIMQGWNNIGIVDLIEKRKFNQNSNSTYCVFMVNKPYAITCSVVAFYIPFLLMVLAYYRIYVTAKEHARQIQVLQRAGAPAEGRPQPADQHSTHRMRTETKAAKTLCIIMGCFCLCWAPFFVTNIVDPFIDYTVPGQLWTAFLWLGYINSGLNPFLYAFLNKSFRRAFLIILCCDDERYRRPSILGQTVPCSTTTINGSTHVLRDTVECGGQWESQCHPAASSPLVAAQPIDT

With `COc1cc(N)c(Cl)cc1C(=O)NC1CCN2CCCC1C2` (configuration not stated) [NSC_3035240] the Ki was 126 nM and 100 nM.
In the case of `NCCc1c[nH]c2ccc(C(N)=O)cc12` [[3H]-5-carboxamidotryptamine], the Ki is reported as 6310 nM.
For `COc1cc(N)c(Cl)cc1C(=O)NC1CN2CCC1CC2` (configuration not stated) [ZACOPRIDE,R], the Ki was 200 nM and 158 nM and 251 nM.
For `COc1cc(N)c(Cl)cc1C(=O)N[C@@H]1CN2CCC1CC2` [ZACOPRIDE,R], the Ki was 1000 nM and 501 nM.
`Cn1cc(C(=O)OCC2CCN(CCNS(C)(=O)=O)CC2)c2ccccc21` [GR 113808] was tested, and the Ki was 0.25 nM and 0.31 nM.
In the case of `CCN(CC)CCOC(=O)c1cc(Cl)c(N)cc1OC` [SDZ-205557], the Ki is reported as 7.94 nM and 6.3 nM.
In the case of `CCn1c(=O)n(C(=O)NC2CC3CCC(C2)N3C)c2ccccc21` (configuration not stated) [BIMU 1], the Ki is reported as 15.8 nM.
Compound `Cn1cc(CCN)c2cc(O)ccc21` [5-HT,omega-N-Me] has a Ki of 1580 nM.
In the case of `COc1ccc2[nH]cc(CCN)c2c1` [tryptamine, 5-Methoxy], the Ki is reported as 631 nM and 316 nM.
`CC(C)n1c(=O)n(C(=O)NC2C[C@H]3CC[C@@H](C2)N3C)c2ccccc21` (some centres not stated) [BIMU 8] was tested, and the Ki was 25.1 nM and 12.6 nM.
Compound `CN1C2CCC1CC(OC(=O)c1c[nH]c3ccccc13)C2` (configuration not stated) has a Ki of 63.1 nM.
With `CCN(CC)CCNC(=O)c1cc(Cl)c(N)cc1OC` [4-amino-5-chloro-N-[2-(diethylamino)ethyl]-2-methoxy-benzamide;hydrochloride] the Ki was 631 nM and 501 nM.
